Reference: PubChem BioAssay (NCI)
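Each compound was tested at five concentrations against cells in 96-well plates for 48 hours. GI50 marks 50% less growth. The concentration for full growth arrest is given as TGI.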 *1 amine or outer side, *2 acyl side, *3 side chain or, on linkers, in order; H or OH if unused. Where a SMILES comes first, the peptide text is derived from it. Bridges are numbered along the chain shown (N, C = ends). [ ]: non-standard residue; d: D form. Adda = CO[C@@H](Cc1ccccc1)[C@@H](C)/C=C(C)/C=C/[C@H](N[*:1])[C@H](C)C(=O)[*:2]; dAsp(3S-Me) = C[C@H](C(=O)[*:3])[C@@H](N[*:1])C(=O)[*:2]; d(γGlu) = O=C(O)[C@@H](CCC(=O)[*:2])N[*:1]; NMeDha = C=C(NC)C(=O)O

How the values were obtained:
Test in all cases: growth of human tumour cells (NCI), 48 h
[1] = system: K-562 leukemia
[2] = system: SK-OV-3 ovarian
[3] = system: UO-31 renal
[4] = system: CAKI-1 renal
[5] = system: EKVX NSCLC
[6] = system: M14 melanoma
[7] = system: IGROV1 ovarian
[8] = system: OVCAR-5 ovarian
[9] = system: NCI/ADR-RES ovarian
[10] = system: SNB-19 CNS
[11] = system: HCC-2998 colon
[12] = system: COLO 205 colon
[13] = system: RPMI-8226 leukemia
[14] = system: SK-MEL-5 melanoma
[15] = system: BT-549 breast
[16] = system: SF-268 CNS
[17] = system: MDA-MB-435
[18] = system: SK-MEL-28 melanoma
[19] = system: HS 578T breast
[20] = system: HOP-92 NSCLC
[21] = system: SK-MEL-2 melanoma
[22] = system: OVCAR-8 ovarian
[23] = system: TK-10 renal
[24] = system: SN12C renal
[25] = system: MDA-MB-231 breast
[26] = system: HCT-15 colon
[27] = system: HCT-116 colon
[28] = system: KM12 colon
[29] = system: PC-3 prostate
[30] = system: RXF 393 renal
[31] = system: NCI-H23 lung
[32] = system: LOX IMVI melanoma
[33] = system: DU-145 prostate
[34] = system: MCF7 breast
[35] = system: SF-539 CNS
[36] = system: UACC-257 melanoma
[37] = system: SNB-75 CNS
[38] = system: HOP-62 NSCLC
[39] = system: A549 NSCLC
[40] = system: T-47D breast
[41] = system: OVCAR-4 ovarian
[42] = system: HL-60(TB) leukemia
[43] = system: NCI-H522 lung
[44] = system: SR leukemia
[45] = system: 786-0 renal
[46] = system: OVCAR-3 ovarian
[47] = system: HT29 colon
[48] = system: UACC-62 melanoma
[49] = system: MOLT-4 leukemia
[50] = system: NCI-H460 lung
[51] = system: SF-295 CNS
[52] = system: NCI-H226 lung
[53] = system: SW-620 colon
[54] = system: CCRF-CEM leukemia
[55] = system: MALME-3M melanoma
[56] = system: U251 CNS
[57] = system: ACHN renal

With `C=C1C(=O)N[C@H](C)C(=O)N[C@@H](CC(C)C)C(=O)N[C@@H](C(=O)O)[C@H](C)C(=O)N[C@@H](CCCN=C(N)N)C(=O)N[C@@H](/C=C/C(C)=C/[C@H](C)[C@H](Cc2ccccc2)OC)[C@H](C)C(=O)N[C@@H](C(=O)O)CCC(=O)N1C` (R[Adda][d(γGlu)][NMeDha][dA]L[dAsp(3S-Me)]-OH; lactam N-7) the GI50 [1] was greater than 5 µM, the TGI [1] was greater than 5 µM and the GI50 [2] was greater than 5 µM. For the same molecule, the TGI [2] was greater than 5 µM, the GI50 [3] was greater than 5 µM and the TGI [3] was greater than 5 µM. It also gave a GI50 [4] greater than 5 µM, a TGI [4] greater than 5 µM and a GI50 [5] greater than 5 µM. The TGI [5] was greater than 5 µM, the GI50 [6] was greater than 5 µM and the TGI [6] was greater than 5 µM. For the same molecule, the GI50 [7] was 0.305 µM, the TGI [7] was greater than 5 µM and the GI50 [8] was greater than 5 µM. It also gave a TGI [8] greater than 5 µM, a GI50 [9] greater than 5 µM and a TGI [9] greater than 5 µM. The GI50 [10] was greater than 5 µM, the TGI [10] was greater than 5 µM and the GI50 [11] was greater than 5 µM. It also gave a TGI [11] greater than 5 µM, a GI50 [12] greater than 5 µM and a TGI [12] greater than 5 µM. The GI50 [13] was greater than 5 µM, the TGI [13] was greater than 5 µM and the GI50 [14] was greater than 5 µM. The TGI [14] was greater than 5 µM, the GI50 [15] was greater than 5 µM and the TGI [15] was greater than 5 µM. It also gave a GI50 [16] greater than 5 µM, a TGI [16] greater than 5 µM and a GI50 [17] greater than 5 µM. The TGI [17] was greater than 5 µM, the GI50 [18] was greater than 5 µM and the TGI [18] was greater than 5 µM. For the same molecule, the GI50 [19] was greater than 5 µM, the TGI [19] was greater than 5 µM and the GI50 [20] was greater than 5 µM. It also gave a TGI [20] greater than 5 µM, a GI50 [21] greater than 5 µM and a TGI [21] greater than 5 µM. The GI50 [22] was greater than 5 µM, the TGI [22] was greater than 5 µM and the GI50 [23] was greater than 5 µM. The TGI [23] was greater than 5 µM, the GI50 [24] was greater than 5 µM and the TGI [24] was greater than 5 µM. The GI50 [25] was greater than 5 µM, the TGI [25] was greater than 5 µM and the GI50 [26] was greater than 5 µM. It also gave a TGI [26] greater than 5 µM, a GI50 [27] greater than 5 µM and a TGI [27] greater than 5 µM. For the same molecule, the GI50 [28] was greater than 5 µM, the TGI [28] was greater than 5 µM and the GI50 [29] was greater than 5 µM. For the same molecule, the TGI [29] was greater than 5 µM, the GI50 [30] was greater than 5 µM and the TGI [30] was greater than 5 µM. It also gave a GI50 [31] greater than 5 µM, a TGI [31] greater than 5 µM and a GI50 [32] greater than 5 µM. The TGI [32] was greater than 5 µM, the GI50 [33] was greater than 5 µM and the TGI [33] was greater than 5 µM. For the same molecule, the GI50 [34] was greater than 5 µM, the TGI [34] was greater than 5 µM and the GI50 [35] was greater than 5 µM. For the same molecule, the TGI [35] was greater than 5 µM, the GI50 [36] was greater than 5 µM and the TGI [36] was greater than 5 µM. The GI50 [37] was greater than 5 µM, the TGI [37] was greater than 5 µM and the GI50 [38] was greater than 5 µM. It also gave a TGI [38] greater than 5 µM, a GI50 [39] of 4.68 µM and a TGI [39] greater than 5 µM. It also gave a GI50 [40] greater than 5 µM, a TGI [40] greater than 5 µM and a GI50 [41] greater than 5 µM. The TGI [41] was greater than 5 µM, the GI50 [42] was greater than 5 µM and the TGI [42] was greater than 5 µM. The GI50 [43] was 4.94 µM, the TGI [43] was greater than 5 µM and the GI50 [44] was 1.19 µM. For the same molecule, the TGI [44] was greater than 5 µM, the GI50 [45] was greater than 5 µM and the TGI [45] was greater than 5 µM. It also gave a GI50 [46] greater than 5 µM, a TGI [46] greater than 5 µM and a GI50 [47] greater than 5 µM. For the same molecule, the TGI [47] was greater than 5 µM, the GI50 [48] was greater than 5 µM and the TGI [48] was greater than 5 µM. For the same molecule, the GI50 [49] was greater than 5 µM, the TGI [49] was greater than 5 µM and the GI50 [50] was greater than 5 µM. It also gave a TGI [50] greater than 5 µM, a GI50 [51] greater than 5 µM and a TGI [51] greater than 5 µM. It also gave a GI50 [52] greater than 5 µM, a TGI [52] greater than 5 µM and a GI50 [53] greater than 5 µM. It also gave a TGI [53] greater than 5 µM.
Molecule `N#C/C(=C\c1ccccc1)c1nc(-c2cc3ccccc3oc2=O)cs1` has a TGI [54] greater than 100 µM, a TGI [1] greater than 100 µM and a TGI [2] greater than 100 µM. For the same molecule, the TGI [3] was greater than 100 µM, the TGI [4] was greater than 100 µM and the TGI [5] was greater than 100 µM. The TGI [6] was greater than 100 µM, the TGI [7] was greater than 100 µM and the TGI [8] was greater than 100 µM. The TGI [9] was greater than 100 µM, the TGI [10] was greater than 100 µM and the TGI [11] was greater than 100 µM. The TGI [12] was greater than 100 µM, the TGI [13] was greater than 100 µM and the TGI [14] was greater than 100 µM. It also gave a TGI [15] of 77.1 µM, a TGI [16] greater than 100 µM and a TGI [17] greater than 100 µM. The TGI [18] was greater than 100 µM, the TGI [19] was 82.1 µM and the TGI [20] was greater than 100 µM. It also gave a TGI [21] greater than 100 µM, a TGI [22] greater than 100 µM and a TGI [23] greater than 100 µM. It also gave a TGI [24] greater than 100 µM, a TGI [25] greater than 100 µM and a TGI [26] greater than 100 µM. For the same molecule, the TGI [27] was greater than 100 µM, the TGI [55] was greater than 100 µM and the TGI [28] was greater than 100 µM. The TGI [29] was greater than 100 µM, the TGI [30] was greater than 100 µM and the TGI [32] was greater than 100 µM. The TGI [33] was greater than 100 µM, the TGI [34] was greater than 100 µM and the TGI [35] was greater than 100 µM. For the same molecule, the TGI [36] was greater than 100 µM, the TGI [56] was greater than 100 µM and the TGI [37] was greater than 100 µM. It also gave a TGI [38] greater than 100 µM, a TGI [39] greater than 100 µM and a TGI [40] greater than 100 µM. The TGI [41] was greater than 100 µM, the TGI [42] was greater than 100 µM and the TGI [43] was greater than 100 µM. For the same molecule, the TGI [44] was greater than 100 µM, the TGI [45] was greater than 100 µM and the TGI [47] was greater than 100 µM. For the same molecule, the TGI [57] was greater than 100 µM, the TGI [48] was greater than 100 µM and the TGI [49] was greater than 100 µM. The TGI [50] was greater than 100 µM, the TGI [51] was greater than 100 µM and the TGI [52] was greater than 100 µM. For the same molecule, the TGI [53] was greater than 100 µM.
